Laboratory results as given in article PMC10233829 (ACS Omega, 2023).
Values after ≈ are worked out from the molar mass of the structure shown.

Columns and labels:
PC3 cells = assay: MTT assay, cytotoxic activity; type: cell-based, human; conditions: MTT, 72 h
How it was run: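 Cytotoxicity readout: relative MTT level (%), i.e. absorbance of compound-treated PC3 cells divided by that of untreated controls, ×100. Cultures were kept in a humidified 37 °C, 5% CO2 incubator.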

[1] = system: IL-6 level in HaCaT cells; assay: Interleukin-6 ELISA; type: cell-based, human; conditions: IC50 concentration, 72 h
Experimental: (§1) The level of interleukin-6 (IL-6) in PC3 and HaCaT cell lines was measured by commercial human IL-6 ELISA kits Diaclon SAS (Besancon Cedex, France). […] The untreated cells were used as the control. The IL-6 level in a cell culture supernatant was measured using an enzyme-linked immunosorbent assay in accordance with the manufacturer’s instruction. The experiment was repeated three times.

IL-6 level in PC3 cells = assay: Interleukin-6 ELISA; type: cell-based, human; conditions: PC3, IC50 concentration, 72 h
Experimental: as §1

P. aeruginosa ATCC 15442 [2] = assay: Bacterial growth curve assay (OD600, 18 h); type: cell-based, Pseudomonas aeruginosa; conditions: P. aeruginosa
S. aureus ATCC 6538 [3] = assay: Bacterial growth curve assay (OD600, 18 h); type: cell-based, Staphylococcus aureus; conditions: S. aureus ATCC 6538, 0.1 μg/mL
[4] = system: E. coli ATCC 25922 biofilm; assay: Biofilm eradication assay (crystal violet); type: cell-based, Escherichia coli; conditions: 4 MIC
Experimental: (§2) Three bacterial strains E. coli ATCC 25922, P. aeruginosa ATCC 15442, and S. aureus ATCC 6538 were used to assign biofilm eradication properties of compounds 5, 10, 11, and CP as the reference drug. To quantify the biomass of the bacteria biofilm, the crystal violet method was used with some modifications.[52] The bacteria were incubated to the mid-log phase, diluted to 103 cfu/mL in brain–heart infusion medium, and seeded in a 96-well plate. Bacterial biofilms were formed by overnight incubation at 37 °C with rotation at 140 rpm. After biofilm formation, all wells were washed with PBS to remove nonadherent bacteria cells. […] The biofilms with tested substances were incubated for 20 h at 37 °C with shaking at 140 rpm. The bacterial biofilm was stained with 0.1% (v/v) CV for 10 min. Afterward, the biofilm was rinsed with PBS and dried. To solubilize the adsorbed crystal violet, wells with stained biofilms were incubated in 30% acetic acid. To estimate the total biofilm biomass, optical density (OD) of the resulting solution was measured at 595 nm. Biofilm assays were repeated at least three times on different days, with two technical replicates assessed each time. A minimum eradication concentration (MBEC) was determined as the lowest concentration of compound, which could damage ≥50% of the formed biofilm structure.

[5] = system: S. aureus ATCC 6538 biofilm; assay: Biofilm eradication assay (crystal violet); type: cell-based, Staphylococcus aureus; conditions: 4–2 MIC
Experimental: as §2

S. aureus NCTC 4163 = assay: MIC, twofold microdilution, standard strain; type: cell-based; conditions: Staphylococcus aureus, NCTC4163, 18 h
S. aureus ATCC 25923 = assay: MIC, twofold microdilution, standard strain; type: cell-based; conditions: Staphylococcus aureus, ATCC25923, 18 h
S. aureus ATCC 6538 [6] = assay: MIC, twofold microdilution, standard strain; type: cell-based, Staphylococcus aureus; conditions: Staphylococcus aureus, ATCC6538; standard strain, 18 h
S. aureus ATCC 29213 = assay: MIC, twofold microdilution, standard strain; type: cell-based; conditions: Staphylococcus aureus, ATCC29213, 18 h
[7] = system: S. epidermidis ATCC 12228; assay: MIC, twofold microdilution, standard strain; type: cell-based; conditions: Staphylococcus epidermidis, ATCC12228, 18 h
[8] = system: S. epidermidis ATCC 35984; assay: MIC, twofold microdilution, standard strain; type: cell-based; conditions: Staphylococcus epidermidis, ATCC35984, 18 h
P. aeruginosa ATCC 15442 [9] = assay: MIC, twofold microdilution, standard strain; type: cell-based, Pseudomonas aeruginosa; conditions: Pseudomonas aeruginosa, ATCC15442; standard strain, 18 h
E. coli ATCC 25922 = assay: MIC, twofold microdilution, standard strain; type: cell-based, Escherichia coli; conditions: Escherichia coli, ATCC25922; standard strain, 18 h
S. aureus 180 = assay: MIC, twofold microdilution, clinical strain; type: cell-based; conditions: Staphylococcus aureus, 18 h
S. aureus 5595 = assay: MIC, twofold microdilution, clinical strain; type: cell-based; conditions: Staphylococcus aureus, 18 h
S. aureus T5595 = assay: MIC, twofold microdilution, clinical strain; type: cell-based, Staphylococcus aureus; conditions: Staphylococcus aureus, T5595, 18 h
S. aureus T5591 = assay: MIC, twofold microdilution, clinical strain; type: cell-based, Staphylococcus aureus; conditions: Staphylococcus aureus, T5591, 18 h
S. epidermidis 4341 = assay: MIC, twofold microdilution, clinical strain; type: cell-based; conditions: Staphylococcus epidermidis, 18 h
S. epidermidis 5253 = assay: MIC, twofold microdilution, clinical strain; type: cell-based, Staphylococcus epidermidis; conditions: Staphylococcus epidermidis, 5253, 18 h
S. epidermidis KR4243/1 = assay: MIC, twofold microdilution, clinical strain; type: cell-based; conditions: Staphylococcus epidermidis, 18 h
S. pasteuri KR 4358 = assay: MIC, twofold microdilution, clinical strain; type: cell-based; conditions: Staphylococcus pasteuri, KR4358, 18 h
P. aeruginosa 37 = assay: MIC, twofold microdilution, clinical strain; type: cell-based; conditions: Pseudomonas aeruginosa, 18 h
P. aeruginosa 659 = assay: MIC, twofold microdilution, clinical strain; type: cell-based; conditions: Pseudomonas aeruginosa, 18 h
E. coli 951 = assay: MIC, twofold microdilution, clinical strain; type: cell-based; conditions: Escherichia coli, 18 h
E. coli 520 = assay: MIC, twofold microdilution, clinical strain; type: cell-based; conditions: Escherichia coli, 18 h
E. coli 600 = assay: MIC, twofold microdilution, clinical strain; type: cell-based, Escherichia coli; conditions: Escherichia coli, 600, 18 h
E. cloacae 8 = assay: MIC, twofold microdilution, clinical strain; type: cell-based, Escherichia cloacae; conditions: Enterobacter cloacae, 8; clinical strain, 18 h
K. pneumoniae 28 = assay: MIC, twofold microdilution, clinical strain; type: cell-based; conditions: Klebsiella pneumoniae, 18 h
K. pneumoniae 510 = assay: MIC, twofold microdilution, clinical strain; type: cell-based, Klebsiella pneumoniae; conditions: Klebsiella pneumoniae, 510; clinical strain, 18 h
M. tuberculosis H37Rv = assay: Tuberculostatic activity, Microplate Alamar Blue Assay (MIC); type: cell-based, Mycobacterium tuberculosis; conditions: Mycobacterium tuberculosis, H37RV; MABA; read-out: MIC M. tuberculosis H37Rv
[10] = system: M. tuberculosis Spec. 192; assay: as above; type: cell-based; conditions: Mycobacterium tuberculosis, MABA, read-out: MIC M. tuberculosis Spec. 192 (sensitive to tuberculostatics)
M. tuberculosis Spec 210 = assay: microbe, parasite or virus in culture; type: cell-based, Mycobacterium tuberculosis; conditions: M. tuberculosis Spec. 210
[11] = MTT assay, cytotoxic activity; type: cell-based; conditions: human, HaCaT cells (immortal keratinocytes); MTT, 72 h, normal cell line; read-out: IC50 HaCaT
How it was run: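 Viability was calculated as A/B × 100%, with A the absorbance of treated samples and B that of untreated controls, from MTT reduction. Cells were cultured in a humidified 37 °C/5% CO2 incubator.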

[12] = system: P. aeruginosa ATCC 15442 and E. coli ATCC 25922; assay: MIC, standard Gram-negative rods as a panel; type: cell-based; conditions: P. aeruginosa ATCC 15442, E. coli ATCC 25922; read-out: MIC against standard Gram-negative rods (range over strains)
[13] = system: clinical bacterial strains; assay: MIC, clinical isolates as groups of strains; type: cell-based; conditions: S. aureus 180 and 5595

O=C(O)c1cn(C2CC2)c2cc(N3CCNCC3)c(F)cc2c1=O [CP, ciprofloxacin, reference compound]
IC50 (PC3 cells; Homo sapiens, PC-3, 72 h): > 100 µM
IC50 (PC3 cells): 100 ± 3.6 µM
effect on IL-6 in human keratinocytes [1]: stimulated human keratinocytes to produce IL-6
decrease of IL-6 release as compared to the control (IL-6 level in PC3 cells): 2.4 times
lag phase elongated up to (P. aeruginosa ATCC 15442 [2]; 0.05 μg/mL): up to 14 h
elongation of the exponential phase to (P. aeruginosa ATCC 15442 [2]; 0.03–0.006 μg/mL): 9 h
bacterial growth limited up to (S. aureus ATCC 6538 [3]): up to 12 h
eradication of the biofilm formed by E. coli [4]: approx. 20%
elimination of the mature biofilm of S. aureus ATCC 6538 [5]: 19–25%

O=C(O)c1cn(C2CC2)c2cc(N3CCN(CCCCC(=O)N4CCN(c5cc6c(cc5F)c(=O)c(C(=O)O)cn6C5CC5)CC4)CC3)c(F)cc2c1=O [Compound 19, CP–Pentanoyl–CP Dimer]
MIC (S. aureus NCTC 4163): 0.4 µg/mL (≈ 0.537 µM)
MIC (S. aureus ATCC 25923): 0.8 µg/mL (≈ 1.07 µM)
MIC (S. aureus ATCC 6538 [6]): 0.4 µg/mL (≈ 0.537 µM)
MIC (S. aureus ATCC 29213): 0.8 µg/mL (≈ 1.07 µM)
MIC [7]: 0.8 µg/mL (≈ 1.07 µM)
MIC [8]: 0.8 µg/mL (≈ 1.07 µM)
MIC (P. aeruginosa ATCC 15442 [9]): 3.2 µg/mL (≈ 4.3 µM)
MIC (E. coli ATCC 25922): 0.4 µg/mL (≈ 0.537 µM)
MIC (S. aureus 180): 1.6 µg/mL (≈ 2.15 µM)
MIC (S. aureus 5595): 0.8 µg/mL (≈ 1.07 µM)
MIC (S. aureus T5595): 1.6 µg/mL (≈ 2.15 µM)
MIC (S. aureus T5591): 0.8 µg/mL (≈ 1.07 µM)
MIC (S. epidermidis 4341): > 25.6 µg/mL
MIC (S. epidermidis 5253): > 25.6 µg/mL
MIC (S. epidermidis KR4243/1): 1.6 µg/mL (≈ 2.15 µM)
MIC (S. pasteuri KR 4358): 1.6 µg/mL (≈ 2.15 µM)
MIC (P. aeruginosa 37): > 25.6 µg/mL
MIC (P. aeruginosa 659): 25.6 µg/mL (≈ 34.4 µM)
MIC (E. coli 951): 25.6 µg/mL (≈ 34.4 µM)
MIC (E. coli 520): 3.2 µg/mL (≈ 4.3 µM)
MIC (E. coli 600): 3.2 µg/mL (≈ 4.3 µM)
MIC (E. cloacae 8): 3.2 µg/mL (≈ 4.3 µM)
MIC (K. pneumoniae 28): > 25.6 µg/mL
MIC (K. pneumoniae 510): > 25.6 µg/mL
MIC (M. tuberculosis H37Rv): 8 µg/mL (≈ 10.7 µM)
MIC [10]: 8 µg/mL (≈ 10.7 µM)
fold more effective than the reference tuberculostatics (M. tuberculosis Spec 210): 8–32 fold
IC50 (PC3 cells; Homo sapiens, PC-3, 72 h): 71.4 ± 3.2 µM
IC50 at 72 h [11]: 72.9 ± 5.7 µM
MIC [12]: ≤ 1 µg/mL
share of CP inhibitory activity [13]: 62.5%
melting point: 170.3 to 171.9 °C
